15 compounds from PubChem BioAssay (NCI) can be followed below.

As usually defined, the TGI is the concentration at which net growth stops. Higher therefore signals less potent growth arrest.

Holding throughout (experiment): DTP human tumour cell line panel, 48 h
In assay [1] the test system is DLD-1 colon.
For assay [2], the system named is SK-MEL-28 melanoma.
The subject of assay [3] is U251 CNS.
The test system of assay [4] is M19-MEL melanoma.
Assay [5] concerns KM20L2 colon.
For assay [6], the system named is HCC-2998 colon.
Assay [7] concerns DMS 273 small cell lung.
For assay [8], the system named is HOP-18 NSCLC.
The test system of assay [9] is NCI/ADR-RES ovarian.
The test system of assay [10] is OVCAR-5 ovarian.
The test system of assay [11] is MCF7 breast.
Assay [12] deals with MDA-N.
In assay [13] the test system is T-47D breast.

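Following 48 hours of exposure in 96-well plates, responses at five concentrations were used to interpolate endpoints linearly. At the TGI there is no net growth.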

As to `Nc1ccccc1C(=O)C(Br)C(Br)c1ccc2c(c1)OCO2` (stereo not given), the TGI in assay [1] was above 100 µM; in assay [2], 70.4 µM; in assay [3] it was 49.6 µM; in [4], 39.6 µM; in assay [5] it was 31 µM; in [6] it was 42.5 µM. Moreover, the results for the TGI in assay [7] and in assay [8] were 34 µM and 44.4 µM, respectively.
Take `c1ccc2c(c1)CCCC/C2=N/OCC1CO1` (stereo not given): the TGI in assay [1], in [2], in [3], in [5], in [6] and in assay [7] was above 100 µM each time. The TGI in [8] is above 100 µM.
As for `CC(C)N1CN(c2ccccc2)C2(CCN(CCCC(=O)c3ccc(F)cc3)CC2)C1=O`, the TGI in assay [9] turned out to be 31.1 µM; in assay [10], 30.9 µM; in assay [2], 36.7 µM; in [11], 13.1 µM; in assay [12], 36.6 µM; in assay [13], 40.8 µM. Further, the results for the TGI in assay [3] and in [6] were above 100 µM and 27.7 µM, respectively.
Consider `C[C@H]1OC(=O)[C@@H]2N=NN(Cc3ccccc3)[C@H]12`, for which the concentration for total growth inhibition (TGI) in assay [9], in assay [10], in [2], in assay [11], in [12] and in assay [13] was above 100 µM each time. For the same compound, the TGI in [3] and in assay [6] was above 100 µM throughout.
`O=c1c2ccccc2sc2ccccc12`: the TGI in assay [9], in assay [10], in [2], in assay [11], in assay [12] and in assay [13] was above 100 µM each time. For the same compound, the concentration for total growth inhibition (TGI) in assay [3] and in assay [6] was above 100 µM in each case.
As for `O=C(CC(=O)Nc1ccccc1)NNC(c1cc(N=Nc2ccc(Br)cc2)ccc1O)P(O)O` (stereo not given), the TGI in [9], in [10], in assay [2], in [11], in assay [12] and in assay [13] was above 10 µM each time. Besides, the TGI in assay [3] and in assay [6] was above 10 µM throughout.
Consider `C=C1C(=O)C23C(O)CC4C5(C)CCCC4(C(O)OC5)C2C(OC(C)=O)CC1C3O` (stereo not given), for which the TGI amounted to 20.6 µM in [1]; 31.9 µM in assay [10]; 22.7 µM in [2]; 30.7 µM in [3]; 30.7 µM in assay [4]; 21.2 µM in assay [5]. Moreover, the values for the TGI in [6], in assay [7] and in [8] were 32.4 µM, 41.3 µM and 30.4 µM, respectively.
With `COc1ccc2c(c1)c(=O)c1c(NCCNCCO)ccc3c(=O)n(CCN(C)C)c(=O)n2c31`, the TGI in [9] is 15 µM; in [10], 3.05 µM; in [2], 1.34 µM; in assay [11] it was 3.54 µM; in [12], 0.279 µM; in [13], 0.541 µM. For the same compound, the TGI in assay [3] is 0.937 µM; in assay [6], 0.234 µM.
As to `COc1nc2c(N3CCCC3)nc(N3CCNCC3)nc2nc1NCc1ccccc1`, the TGI in assay [9] turned out to be 17.1 µM; in [10] it was 8.04 µM; in assay [2], 3.92 µM; in [11], 3.46 µM; in assay [12] it was 2.45 µM; in [13], 3.19 µM. Moreover, the TGI in [3] was 3.5 µM; in assay [6] it was 2.79 µM.
As to `CC(C)=CCC[C@@H](C)C1=C(O)C(N)=C(C)C(=O)C1=O`, the TGI in assay [9] is 24.7 µM; in assay [10], above 100 µM; in assay [2], above 100 µM; in assay [11] it was above 100 µM; in assay [12], above 100 µM; in assay [13], above 88.4 µM. For the same compound, the TGI in assay [3] and in [6] was above 100 µM in each case.
For the compound `CC#CC(O)(C(=O)OC1CC(C)N(C)C(C)(C)C1)C1CCCC1` (stereo not given), the TGI in assay [9] is 93.6 µM; in assay [10], above 100 µM; in assay [2] it was above 100 µM; in [11], above 100 µM; in assay [12] it was above 100 µM; in [13] it was above 100 µM. Also, the TGI in [3] and in assay [6] was above 100 µM in each case.
On to `O=C(O)CN(CC(=O)O)C(C(=O)O)c1ccccc1` (stereo not given), for which the TGI in assay [9], in assay [10], in assay [2], in assay [11], in assay [12] and in assay [13] was above 100 µM throughout. Moreover, the TGI in [3] and in [6] was above 100 µM in each case.
On to `O=C(OCC1OC(n2nc(Cn3nnc(-c4cccnc4)n3)n(-c3cccc4ccccc34)c2=S)C(OC(=O)c2ccccc2)C1OC(=O)c1ccccc1)c1ccccc1` (stereo not given), for which the TGI in [9], in [10], in assay [2], in assay [11], in assay [12] and in [13] was above 100 µM throughout. For the same compound, the TGI in [3] and in assay [6] was above 100 µM throughout.
For the compound `N#Cc1c(-c2ccccc2)c2c([nH]c1=O)-c1cc([N+](=O)[O-])ccc1CCC2`, the TGI in [9] was 71.5 µM; in assay [10], above 100 µM; in assay [2], above 100 µM; in [11] it was 71.8 µM; in assay [12], above 100 µM; in assay [13], 52.2 µM. The TGI in assay [3] was above 100 µM; in [6] it was 48.2 µM.
Consider `CCOC(=O)C1=CC(C)(C(=O)OCC)Nc2c(nc(N)[nH]c2=O)N1` (stereo not given), for which the TGI in [9], in [10], in assay [2], in assay [11], in assay [12] and in assay [13] was above 10 µM throughout. In addition, the TGI in [3] and in [6] was above 10 µM throughout.
